Literature values in patent publication US20050267009A1, “Method of Treatment of Acute and Persistent Pain” (priority 2004, published 2005).
Like-named read-outs stand apart in the source and are kept apart here.

Columns and labels:
NOS-2 = settings: macrophages and astroglial cells, decreased NOS-2 activity and protein
nociceptors = settings: rat skin in vitro; for EC(50) of heat sensitization of CGRP release: heat-evoked CGRP release; for sensitization of the heat-evoked CGRP release: applied alone
[1] = tested on: spinal neuronal responses
spinal VR1 receptors = target: T1, spinal VR1 receptors (Rattus norvegicus, UniProt O35433); settings: spinal 0.5-30 microM; greater extent in sham operated than SNL rats
T1 construct: VR1 receptors, present on Adelta- and C-fibres and post-synaptic sites within the spinal cord dorsal horn; endogenous in cells; host or cells: rat spinal cord, in vivo electrophysiology

[2] = tested on: glia and proinflammatory cytokines; settings: intrathecal
interleukin-10 = settings: prolonged administration
trigeminal nerve fibers = settings: dura mater
nerve root injury = settings: topical application of disk tissue (nucleus pulposus)
COX = settings: 5 and 7 days after injection
prostaglandin E2 (PGE2) = settings: 10 days after CCI, treatment started 12 hours after surgery
[3] = in vivo
[4] = human, in vivo
[5] = tested on: spinal cord nociceptive transmission; settings: for wind-up activity: normal rats
[6] = systemic HU210 60 microg/kg, sham-operated rats

T1 sequence (O35433 whole entry): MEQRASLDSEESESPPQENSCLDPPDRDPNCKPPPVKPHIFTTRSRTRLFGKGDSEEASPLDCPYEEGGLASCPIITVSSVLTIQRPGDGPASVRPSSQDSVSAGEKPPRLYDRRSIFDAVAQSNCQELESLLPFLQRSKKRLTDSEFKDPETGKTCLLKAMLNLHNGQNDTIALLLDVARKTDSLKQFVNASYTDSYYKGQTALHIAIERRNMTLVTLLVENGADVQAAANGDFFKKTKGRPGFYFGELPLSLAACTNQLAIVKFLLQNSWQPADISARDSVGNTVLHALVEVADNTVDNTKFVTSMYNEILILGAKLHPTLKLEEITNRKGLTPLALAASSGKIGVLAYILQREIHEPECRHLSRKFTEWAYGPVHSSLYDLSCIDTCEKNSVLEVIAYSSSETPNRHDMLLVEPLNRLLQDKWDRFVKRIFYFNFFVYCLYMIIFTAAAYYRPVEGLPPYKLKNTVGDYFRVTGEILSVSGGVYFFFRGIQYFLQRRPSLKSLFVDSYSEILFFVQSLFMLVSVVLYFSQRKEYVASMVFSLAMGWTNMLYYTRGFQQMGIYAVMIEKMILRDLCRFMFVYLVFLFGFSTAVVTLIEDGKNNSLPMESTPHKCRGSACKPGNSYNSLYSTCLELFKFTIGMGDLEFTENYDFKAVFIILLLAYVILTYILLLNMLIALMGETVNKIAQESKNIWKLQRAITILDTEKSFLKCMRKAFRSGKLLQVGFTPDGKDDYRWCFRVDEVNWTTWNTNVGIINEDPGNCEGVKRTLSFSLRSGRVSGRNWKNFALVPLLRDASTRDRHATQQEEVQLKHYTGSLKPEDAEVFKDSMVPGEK

Molecule: [Cl-].[Cl-].[Mn+2].c1cc2nc(c1)CN[C@@H]1CCCC[C@H]1NCCN[C@@H]1CCCC[C@H]1NC2 [M40403]
- anti-hyperalgesic effects with naloxone (superoxide): not reversed

Molecule: N=C(N)NCCCCN [agmatine]
- production of nitric oxide (NOS-2): inhibits

Molecule: CCCCCCC(C)(C)c1cc(O)c2c(c1)OC(C)(C)[C@@H]1CC=C(CO)C[C@@H]21 [HU210]
- C-fibre mediated post-discharge response of spinal neurones (spinal neurones; spinal administration 0.5-500 ng/50 microl, sham operated rats): significantly reduced
- Adelta-fibre evoked responses of spinal neurones (spinal neurones; spinal administration, both sham operated and nerve injured rats): significantly reduced
- Adelta-fibre evoked responses (spinal neurones; [6]): 48+/−5 % of control
- overall C-fibre evoked response (spinal neurones; [6]): 54+/−8 % of control
- post-discharge response (spinal neurones; [6]): 28+/−12 % of control
- C- or Abeta-fibre evoked responses of spinal neurones (spinal neurones; systemic administration, nerve injured rats): did not significantly reduce

Molecule: TNF-alpha
- maximum effect on heat-evoked CGRP release (nociceptors): 350%
- EC(50) of heat sensitization of CGRP release (nociceptors): 3.1 ng/mL

Molecule: IL-6: cytokine interleukin-6
- sensitization of the heat-evoked CGRP release (nociceptors): did not induce heat sensitization
- electrically evoked C-fibre, initial C-fibre, post discharge and wind-up ([1]; following neuropathy, spinal): dose-related inhibition
- electrically evoked neuronal responses ([1]; naive rats, spinal 100-500 ng): no significant effect
- mechanical neuronal responses ([1]; neuropathic rats, spinal): markedly inhibited

Molecule: IL-8: cytokine interleukin-8
- sensitization of the heat-evoked CGRP release (nociceptors): not

Molecule: O=C1CCC(N2C(=O)c3ccccc3C2=O)C(=O)N1 (stereo not shown) [thalidomide]
- epineurial IL-10 immunoreactive macrophages and recovery of endoneurial IL-10-IR (TNF-alpha; CCI): enhanced
- thermal hyperalgesia and mechanical allodynia (TNF-alpha; CCI): reduces
- endoneurial IL-1 beta-immunoreactivity and IL-6-IR (TNF-alpha; CCI, lesioned rat sciatic nerve): not altered
- increase of endoneurial TNF-alpha (TNF-alpha; first week after CCI, immunohistochemistry and ELISA): reduced
- decrease in CGRP-IR and SP-IR in the dorsal horn (TNF-alpha; operated animals): not influenced
- increase in met-enkephalin in the dorsal horn (TNF-alpha; operated animals): further enhanced

Molecule: N=C(N)NC(=O)c1nc(Cl)c(N)nc1N [Amiloride]
- blockade of ASICs (ASICs): not potent and not selective

Molecule: Oc1cc2c(cc1O)CN(C(=S)NCCc1ccc(Cl)cc1)CCC2 [capsazepine]
- noxious evoked responses of spinal neurones (spinal VR1 receptors): reduced

Molecule: C/C(=N\N=C(N)N)c1cc(NC(=O)CCCCCCCCC(=O)Nc2cc(/C(C)=N/N=C(N)N)cc(/C(C)=N/N=C(N)N)c2)cc(/C(C)=N/N=C(N)N)c1.Cl.Cl.Cl.Cl [CNI-1493]
- ipsilateral and mirror-image SIN-induced allodynias [2]: prevented and reversed

Molecule: CNCCCN1c2ccccc2CCc2ccccc21 [desipramine]
- secretion of the anti-inflammatory cytokine interleukin-10 (interleukin-10): significant increase

Molecule: CNS(=O)(=O)Cc1ccc2[nH]cc(CCN(C)C)c2c1 [Sumatriptan]
- nerve fiber induced plasma extravasation (trigeminal nerve fibers): blocks
- nerve fiber mediated vasodilatation and dural arterial flow (trigeminal nerve fibers): only minor effects

Molecule: CN(C)CCC=C1c2ccccc2CCc2ccccc21 [amitriptyline]
- secretion of the anti-inflammatory cytokine interleukin-10 (interleukin-10): significant increase

Molecule: O=C(O)CC(O)(C(=O)O)C(F)C(=O)O (stereo not shown) [fluorocitrate]
- ipsilateral and mirror-image SIN-induced allodynias [2]: reversed

Molecule: CC(=O)CCCCn1c(=O)c2c(ncn2C)n(C)c1=O [Pentoxifylline]
- nerve root injury and swelling (dorsal root ganglion compartment syndrome) (nerve root injury): prevented

Molecule: CC(C)Cc1ccc(C(C)C(=O)O)cc1 (stereo not shown) [ibuprofen]
- mechanical allodynia induced by intraneural TNF (COX): reduced
- PGE2 levels in injured nerves and DRG (prostaglandin E2 (PGE2)): reversed

Molecule: CCCn1cnc2c1c(=O)n(CCCCC(C)=O)c(=O)n2C [propentofylline]
- glial activation and enhanced spinal proinflammatory cytokines (glial activation; following peripheral nerve injury): inhibit
- analgesic activity of morphine (glial activation; propentofylline treatment, neuropathic pain): restoration

B1: nerve growth factor: prototypic member of the neurotrophin family (protein, UniProt P25427 122-241, looked up)
Beta-nerve growth factor: SSTHPVFHMGEFSVCDSVSVWVGDKTTATDIKGKEVTVLGEVNINNSVFKQYFFETKCRAPNPVESGCRGIDSKHWNSYCTTTHTFVKALTTDDKQAAWRFIRIDTACVCVLSRKAARRG
- hyperalgesia [3]: rapid onset of hyperalgesia
- adverse event [4]: induction of pain has been the major adverse event

B2: IL-1 beta: proinflammatory cytokine interleukin-1 beta (protein, UniProt Q63264 117-268, looked up)
Interleukin-1 beta: VPIRQLHCRLRDEQQKCLVLSDPCELKALHLNGQNISQQVVFSMSFVQGETSNDKIPVALGLKGLNLYLSCVMKDGTPTLQLESVDPKQYPKKKMEKRFVFNKIEVKTKVEFESAQFPNWYISTSQAEHRPVFLGNSNGRDIVDFTMEPVSS
- maximum effect on heat-evoked CGRP release (nociceptors): ~600%
- EC(50) of heat sensitization of CGRP release (nociceptors): 2.7 ng/mL
- wind-up scores ([5]; monoarthritic rats, any dose): did not significantly change
- wind-up activity ([5]; higher doses (8.0 ng)): marginal insignificant effect
- wind-up activity ([5]; low i.t. doses 0.03-2.0 ng): dose-dependently enhanced

B3: IL-10: natural anti-inflammatory cytokine (protein, UniProt P29456 19-178, looked up)
Interleukin-10: SKGHSIRGDNNCTHFPVSQTHMLRELRAAFSQVKTFFQKKDQLDNILLTDSLLQDFKGYLGCQALSEMIKFYLVEVMPQAENHGPEIKEHLNSLGEKLKTLWIQLRRCHRFLPCENKSKAVEQVKNDFNKLQDKGVYKAMNEFDIFINCIEAYVTLKMKN
- inflammatory mediator TNF-alpha after SCI (spinal cord injury; rats with SCI): decrease
- less spinal cord tissue loss than in untreated rats (spinal cord injury; single injection within half an hour of SCI): 49%
